# Assay results from patent US8648066B2 (Exelixis, Inc., priority 2009, dated 2014).
# Molecular target: mTOR/GbL/Raptor (mTORC1) (Homo sapiens, UniProt P42345)
# Experiment: mTOR/GbL/Raptor (mTORC1) ELISA assay
# Type: biochemical
# Conditions: phosphorylation of 4E-BP1; 0.2 nM mTORC1, 10 μM ATP; read-out: IC50 in this assay (mTORC1 ELISA)
# Method in brief: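 Human mTORC1 (0.2 nM) phosphorylated 50 nM His-tagged 4E-BP1 with 10 µM ATP in HEPES pH 7.2 containing 10 mM MnCl2, 120 min at ambient temperature. Substrate was captured on Ni-chelate plates; phospho-4E-BP1 was detected by primary antibody and HRP secondary with luminescence.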
row,SMILES,IC50 [nM]
1,"COCCNS(=O)(=O)c1cc(-c2ccc3c(c2)CN(c2ncnc4c2CC(C)(C)CC4)CCO3)cnc1N [Example 392, 2-amino-5-[4-(6,6-dimethyl-5,6,7,8-tetrahydroquinazolin-4-yl)-2,3,4,5-tetrahydro-1,4-benzoxazepin-7-yl]-N-[2-(methyloxy)ethyl]pyridine-3-sulfonamide]",50 to 250
2,"Cc1nc2cc(-c3ccc4c(c3)CN(c3nc(C(C)N(C)C)nc5c3CC(C)(C)CC5)CCO4)cnc2[nH]1 (stereo not shown) [Example 356, 1-{6,6-dimethyl-4-[7-(2-methyl-3H-imidazo[4,5-b]pyridin-6-yl)-2,3-dihydro-1,4-benzoxazepin-4(5H)-yl]-5,6,7,8-tetrahydroquinazolin-2-yl}-N,N-dimethylethanamine]",50 to 250
3,"Nc1nc2ncc(-c3ccc4c(c3)CN(c3ncnc5cccnc35)CCO4)cc2[nH]1 [Example 227, 6-(4-pyrido[3,2-d]pyrimidin-4-yl-2,3,4,5-tetrahydro-1,4-benzoxazepin-7-yl)-1H-imidazo[4,5-b]pyridin-2-amine]",50 to 250
4,"CCN(Cc1nc2c(c(N3CCOc4ccc(-c5cnc6nc(C)[nH]c6c5)cc4C3)n1)CC(C)(C)CC2)C(C)C [Example 603, N-({6,6-dimethyl-4-[7-(2-methyl-1H-imidazo[4,5-b]pyridin-6-yl)-2,3-dihydro-1,4-benzoxazepin-4(5H)-yl]-5,6,7,8-tetrahydroquinazolin-2-yl}methyl)-N-ethylpropan-2-amine]",50 to 250
5,"CC1(C)CCc2ncnc(N3CCOc4ccc(-c5cnc(N)c(S(=O)(=O)N[C@@H]6CCNC6)c5)cc4C3)c2C1 [Example 387, 2-amino-5-[4-(6,6-dimethyl-5,6,7,8-tetrahydroquinazolin-4-yl)-2,3,4,5-tetrahydro-1,4-benzoxazepin-7-yl]-N-[(3R)-pyrrolidin-3-yl]pyridine-3-sulfonamide]",≤ 10
6,"Cc1ncnc(N2CCOc3ccc(-c4ccn5nc(N)nc5c4)cc3C2)c1Cc1ccc(F)cc1 [Example 146, 7-(4-{5-[(4-fluorophenyl)methyl]-6-methylpyrimidin-4-yl}-2,3,4,5-tetrahydro-1,4-benzoxazepin-7-yl)[1,2,4]triazolo[1,5-a]pyridin-2-amine]",10 to 50
7,"CC1(C)CCc2ncnc(N3CCOc4ccc(-c5cnc(N)c(S(=O)(=O)NC6CNC6)c5)cc4C3)c2C1 [Example 426, 2-amino-N-azetidin-3-yl-5-[4-(6,6-dimethyl-5,6,7,8-tetrahydroquinazolin-4-yl)-2,3,4,5-tetrahydro-1,4-benzoxazepin-7-yl]pyridine-3-sulfonamide]",10 to 50
8,"COC(=O)Nc1nc2ccc(-c3ccc4c(c3)CN(c3ncnc5ccccc35)CCO4)cc2[nH]1 [Example 109, methyl [6-(4-quinazolin-4-yl-2,3,4,5-tetrahydro-1,4-benzoxazepin-7-yl)-1H-benzimidazol-2-yl]carbamate]",250 to 1000
9,"COc1ccc2c(N3CCOc4ccc(-c5cnc6sc(NC(C)=O)nc6c5)cc4C3)nc(CN(C)C)nc2c1 [Example 618, N-[6-(4-{2-[(dimethylamino)methyl]-7-(methyloxy)quinazolin-4-yl}-2,3,4,5-tetrahydro-1,4-benzoxazepin-7-yl)[1,3]thiazolo[5,4-b]pyridin-2-yl]acetamide]",250 to 1000
10,"COc1c(Cl)cc2c(N3CCOc4ccc(-c5ccc6nc(C)[nH]c6c5)cc4C3)ncnc2c1OC [Example 42, 4-[6-chloro-7,8-bis(methyloxy)quinazolin-4-yl]-7-(2-methyl-1H-benzimidazol-6-yl)-2,3,4,5-tetrahydro-1,4-benzoxazepine]",250 to 1000
11,"Cc1nc2cc(-c3ccc4c(c3)CN(c3nc(CN(C)C)nc(C)c3Cl)CCO4)ccc2[nH]1 [Example 677, 1-{5-chloro-4-methyl-6-[7-(2-methyl-1H-benzimidazol-5-yl)-2,3-dihydro-1,4-benzoxazepin-4(5H)-yl]pyrimidin-2-yl}-N,N-dimethylmethanamine]",≥ 2000
12,"CNc1ncnc(N2CCOc3ccc(-c4cnc5nc(C)[nH]c5c4)cc3C2)c1C [Example 610, N,5-dimethyl-6-[7-(2-methyl-1H-imidazo[4,5-b]pyridin-6-yl)-2,3-dihydro-1,4-benzoxazepin-4(5H)-yl]pyrimidin-4-amine]",250 to 1000
13,"COc1c(OCC2CC2)ccc2c(N3CCOc4ccc(-c5ccc6nc(C)[nH]c6c5)cc4C3)ncnc12 [Example 168, 4-{7-[(cyclopropylmethyl)oxy]-8-(methyloxy)quinazolin-4-yl}-7-(2-methyl-1H-benzimidazol-6-yl)-2,3,4,5-tetrahydro-1,4-benzoxazepine]",250 to 1000
14,"COC(=O)Nc1nc2ccc(-c3ccc4c(c3)CN(c3ncnc5ccc(OC)cc35)CCO4)cc2[nH]1 [Example 112, methyl (6-{4-[6-(methyloxy)quinazolin-4-yl]-2,3,4,5-tetrahydro-1,4-benzoxazepin-7-yl}-1H-benzimidazol-2-yl)carbamate]",250 to 1000
15,"CCc1c(C(C)C)ncnc1N1CCOc2ccc(-c3ccc4nc(C)[nH]c4c3)cc2C1 [Example 61, 4-[5-ethyl-6-(1-methylethyl)pyrimidin-4-yl]-7-(2-methyl-1H-benzimidazol-6-yl)-2,3,4,5-tetrahydro-1,4-benzoxazepine]",50 to 250
16,"CCNc1nc2ccc(-c3ccc4c(c3)CN(c3ccnc5cc(OC)ccc35)CCO4)cc2[nH]1 [Example 291, N-ethyl-6-{4-[7-(methyloxy)quinolin-4-yl]-2,3,4,5-tetrahydro-1,4-benzoxazepin-7-yl}-1H-benzimidazol-2-amine]",10 to 50
17,"COc1ccc2c(N3CCOc4ccc(-c5ccc(N)cc5)cc4C3)nc(C)nc2c1 [Example 504, 4-{4-[2-methyl-7-(methyloxy)quinazolin-4-yl]-2,3,4,5-tetrahydro-1,4-benzoxazepin-7-yl}aniline]",250 to 1000
18,"Cc1nc2ccc(-c3ccc4c(c3)CN(c3ncnc5cc(S(C)(=O)=O)ccc35)CCO4)cc2[nH]1 [Example 40, 7-(2-methyl-1H-benzimidazol-6-yl)-4-[7-(methylsulfonyl)quinazolin-4-yl]-2,3,4,5-tetrahydro-1,4-benzoxazepine]",50 to 250
19,"CN(c1cc(-c2ccc3c(c2)CN(c2ncnc4c2CC(C)(C)CC4)CCO3)cnc1Cl)S(C)(=O)=O [Example 624, N-{2-chloro-5-[4-(6,6-dimethyl-5,6,7,8-tetrahydroquinazolin-4-yl)-2,3,4,5-tetrahydro-1,4-benzoxazepin-7-yl]pyridin-3-yl}-N-methylmethanesulfonamide]",250 to 1000
20,"Cc1nc2cc(-c3ccc4c(c3)CN(c3nc(CN(C)C)nc5c3CC(C)(C)CC5)CCO4)c(F)cc2[nH]1 [Example 342, 1-{4-[7-(6-fluoro-2-methyl-1H-benzimidazol-5-yl)-2,3-dihydro-1,4-benzoxazepin-4(5H)-yl]-6,6-dimethyl-5,6,7,8-tetrahydroquinazolin-2-yl}-N,N-dimethylmethanamine]",250 to 1000
21,"Cc1nc2cc(-c3ccc4c(c3)CN(c3nc(NCCN(C)C)nc(C)c3Cc3ccc(F)cc3)CCO4)ccc2[nH]1 [Example 683, N′-{5-[(4-fluorophenyl)methyl]-4-methyl-6-[7-(2-methyl-1H-benzimidazol-5-yl)-2,3-dihydro-1,4-benzoxazepin-4(5H)-yl]pyrimidin-2-yl}-N,N-dimethylethane-1,2-diamine]",10 to 50
22,"Cc1nc2ccc(-c3ccc4c(c3)CN(c3ncnc5c3CCC(C)C5)CCO4)cc2[nH]1 (stereo not shown) [Example 63, 7-(2-methyl-1H-benzimidazol-6-yl)-4-(7-methyl-5,6,7,8-tetrahydroquinazolin-4-yl)-2,3,4,5-tetrahydro-1,4-benzoxazepine]",50 to 250
23,"Cc1nc2ncc(-c3ccc4c(c3)CN(c3nc(CNCC(F)(F)F)nc5c3CC(C)(C)CC5)CCO4)cc2[nH]1 [Example 591, N-({6,6-dimethyl-4-[7-(2-methyl-1H-imidazo[4,5-b]pyridin-6-yl)-2,3-dihydro-1,4-benzoxazepin-4(5H)-yl]-5,6,7,8-tetrahydroquinazolin-2-yl}methyl)-2,2,2-trifluoroethanamine]",10 to 50
24,"COCC1CCc2c(ncnc2N2CCOc3ccc(-c4cnc5nc(C)[nH]c5c4)cc3C2)C1 (stereo not shown) [Example 567, 7-(2-methyl-1H-imidazo[4,5-b]pyridin-6-yl)-4-{7-[(methyloxy)methyl]-5,6,7,8-tetrahydrquinazolin-4-yl}-2,3,4,5-tetrahydro-1,4-benzoxazepine]",50 to 250
25,"Cc1nc2cc(-c3ccc4c(c3)CN(c3nc(CN(C)C)nc(C)c3Cc3ccc(F)cc3)CCO4)ccc2[nH]1 [Example 347, 1-{5-[(4-fluorophenyl)methyl]-4-methyl-6-[7-(2-methyl-1H-benzimidazol-5-yl)-2,3-dihydro-1,4-benzoxazepin-4(5H)-yl]pyrimidin-2-yl}-N,N-dimethylmethanamine]",≤ 10
26,"Cc1ncnc(N2CCOc3ccc(-c4ccc(C(=O)NC5CC5)cc4)cc3C2)c1Cc1ccc(F)cc1 [Example 172, N-cyclopropyl-4-(4-{5-[(4-fluorophenyl)methyl]-6-methylpyrimidin-4-yl}-2,3,4,5-tetrahydro-1,4-benzoxazepin-7-yl)benzamide]",50 to 250
27,"Cc1nc(CN(C)C)nc(N2CCOc3ccc(-c4ccc5[nH]c(C(F)F)nc5c4)cc3C2)c1C(C)C [Example 331, 1-[4-{7-[2-(difluoromethyl)-1H-benzimidazol-5-yl]-2,3-dihydro-1,4-benzoxazepin-4(5H)-yl}-6-methyl-5-(1-methylethyl)pyrimidin-2-yl]-N,N-dimethylmethanamine]",50 to 250
28,"CCOc1ncc(-c2ccc3c(c2)CN(c2ncnc4c2CC(C)(C)CC4)CCO3)cc1NS(C)(=O)=O [Example 626, N-{5-[4-(6,6-dimethyl-5,6,7,8-tetrahydroquinazolin-4-yl)-2,3,4,5-tetrahydro-1,4-benzoxazepin-7-yl]-2-(ethyloxy)pyridin-3-yl}methanesulfonamide]",10 to 50
